Test results published in the supplement of paper PMC10307832.

Key:
Test in all cases: relative viability (nuclei count vs DMSO), 5 days (fraction); higher = more cells survive
Mirin + Phenformin = compound: N=C1NC(=O)/C(=C/c2ccc(O)cc2)S1 [Mirin] + N=C(N)NC(=N)NCCc1ccccc1 [Phenformin] (partner 250 µM)
Outline: (§1)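 For relative viability, nuclei counts in treated wells were divided by those in vehicle wells. Lung cancer cell lines had been pin-tool dosed in 1536-well plates the day after seeding and cultured for 5 days, then fixed and stained in one step (final 0.05% Triton X-100, 1% formaldehyde, 1 ug/ml Hoechst) and imaged at 4×. Doses were one drug alone or a fixed anchor-drug dose plus five library-drug doses (not always all listed) in √10 steps, and values are duplicate-plate medians.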

[1] = compound: CCC1=CN=CN=C1N2CCN(CC2)CC3=NC4=C(N3)C=C(C=C4)C(F)(F)F + COc1cccc2cc(-c3nc([C@H]4CC[C@H](C(=O)O)CC4)n4ncnc(N)c34)[nH]c12 [OSI-027] (partner 0.5 µM)
Outline: as §1

Mirin + OSI-027 = compound: N=C1NC(=O)/C(=C/c2ccc(O)cc2)S1 [Mirin] + COc1cccc2cc(-c3nc([C@H]4CC[C@H](C(=O)O)CC4)n4ncnc(N)c34)[nH]c12 [OSI-027] (partner 0.5 µM)
Outline: as §1

[2] = compound: CCn1c(-c2nonc2N)nc2cnc(Oc3cccc(NC(=O)c4ccc(OCCN5CCOCC5)cc4)c3)cc21 + NC(=O)Nc1cc(-c2cccc(F)c2)sc1C(=O)N[C@H]1CCCNC1 [AZD7762] (partner 0.2 µM)
Outline: as §1

| Cell Line | relative viability (Mirin + Phenformin; first compound 0.25 µM) | relative viability (Mirin + Phenformin; first compound 0.7906 µM) | relative viability (Mirin + Phenformin; first compound 2.5 µM) | relative viability (Mirin + Phenformin; first compound 7.906 µM) | relative viability (Mirin + Phenformin; first compound 25 µM) | relative viability ([1]; first compound 0.04 µM) | relative viability ([1]; first compound 0.1265 µM) | relative viability ([1]; first compound 0.4 µM) | relative viability ([1]; first compound 1.265 µM) | relative viability ([1]; first compound 4 µM) | relative viability (Mirin + OSI-027; first compound 0.25 µM) | relative viability (Mirin + OSI-027; first compound 0.7906 µM) | relative viability (Mirin + OSI-027; first compound 2.5 µM) | relative viability (Mirin + OSI-027; first compound 7.906 µM) | relative viability (Mirin + OSI-027; first compound 25 µM) | relative viability ([2]; first compound 0.04 µM) | relative viability ([2]; first compound 0.1265 µM) | relative viability ([2]; first compound 0.4 µM) | relative viability ([2]; first compound 1.265 µM) | relative viability ([2]; first compound 4 µM) |
| --- | --- | --- | --- | --- | --- | --- | --- | --- | --- | --- | --- | --- | --- | --- | --- | --- | --- | --- | --- | --- |
| SW 1573 | 0.384 | 0.413 | 0.378 | 0.385 | 0.262 | 0.529 | 0.582 | 0.53 | 0.49 | 0.499 | 0.616 | 0.428 | 0.625 | 0.524 | 0.307 | – | – | – | – | – |
| LOU-NH91 | 0.718 | 0.671 | 0.703 | 0.668 | 0.856 | 0.613 | 0.709 | 0.711 | 0.677 | 0.75 | 0.737 | 0.769 | 0.751 | 0.731 | 0.832 | 0.782 | 0.631 | 0.421 | 0.432 | 0.424 |
| LXF-289 | 0.543 | 0.589 | 0.546 | 0.511 | 0.548 | 0.762 | 0.713 | 0.628 | 0.643 | 0.815 | 0.79 | 0.701 | 0.764 | 0.715 | 0.763 | 1.19 | 1.23 | 0.638 | 0.506 | 0.224 |
| HARA | 0.536 | – | 0.467 | 0.475 | 0.36 | 0.317 | 0.456 | 0.392 | – | 0.529 | 0.491 | – | 0.56 | 0.356 | 0.437 | 0.215 | 0.161 | 0.148 | 0.207 | 0.198 |
| LU99A | 0.839 | 0.687 | 0.882 | 0.762 | 0.766 | 0.287 | 0.281 | 0.316 | 0.283 | 0.289 | 0.284 | 0.288 | 0.299 | 0.288 | 0.278 | 0.439 | 0.436 | 0.241 | 0.296 | 0.252 |
| 201T | 0.463 | 0.494 | 0.454 | 0.463 | 0.568 | 0.737 | 0.752 | 0.748 | 0.664 | 0.747 | 0.75 | 0.832 | – | 0.629 | 0.64 | 0.632 | 0.603 | 0.462 | 0.608 | 0.535 |
| HCC-827 | 0.415 | 0.362 | 0.401 | 0.403 | 0.428 | 0.829 | 0.69 | 0.719 | – | 0.673 | 0.785 | 0.71 | 0.748 | 0.737 | 0.744 | 0.241 | 0.23 | 0.233 | 0.178 | 0.203 |
| NCI-H1666 | 0.568 | 0.62 | 0.598 | 0.539 | 0.49 | 0.736 | 0.81 | 0.816 | 0.803 | 0.873 | 0.795 | 0.949 | 0.806 | 0.79 | 0.682 | 0.907 | 0.875 | 0.694 | 0.383 | 0.477 |
| NCI-H1915 | 0.353 | – | 0.364 | 0.356 | 0.386 | 0.612 | 0.629 | 0.605 | 0.49 | 0.587 | 0.586 | – | 0.625 | 0.579 | 0.6 | 0.726 | 0.569 | 0.467 | 0.251 | 0.201 |
| NCI-H2009 | 0.485 | 0.573 | 0.522 | 0.411 | 0.526 | 0.591 | 0.68 | 0.589 | 0.502 | 0.591 | 0.646 | 0.662 | 0.706 | 0.413 | 0.522 | – | – | – | – | – |
| ChaGo-K-1 | 0.485 | 0.428 | 0.49 | 0.423 | 0.324 | 0.542 | 0.564 | 0.513 | 0.559 | 0.52 | 0.582 | 0.396 | 0.55 | 0.492 | 0.432 | 0.978 | 0.867 | 0.738 | 0.596 | 0.581 |
| COR-L 105 | 0.551 | 0.495 | 0.479 | 0.583 | 0.462 | 0.609 | 0.616 | 0.6 | 0.468 | 0.744 | 0.7 | 0.684 | 0.829 | 0.975 | 0.434 | – | – | – | – | – |
| NCI-H2170 | 0.449 | 0.439 | 0.426 | 0.377 | 0.413 | 0.672 | 0.682 | 0.752 | 0.732 | 0.726 | 0.716 | 0.642 | 0.784 | 0.653 | 0.787 | 0.763 | 0.74 | 0.749 | 0.577 | 0.478 |
| A549 | 0.129 | 0.138 | 0.159 | 0.189 | 0.235 | – | – | – | – | – | – | – | – | – | – | – | – | – | – | – |
| NCI-H1975 | 0.448 | 0.375 | 0.452 | 0.452 | 0.425 | 0.766 | 0.68 | 0.676 | 0.579 | 0.64 | 0.783 | 0.733 | 0.692 | 0.82 | 0.626 | 0.597 | 0.471 | 0.374 | 0.201 | 0.214 |
| NCI-H1648 | – | – | – | – | – | 0.259 | 0.278 | – | 0.278 | 0.314 | 0.279 | 0.276 | 0.232 | 0.261 | 0.26 | 0.978 | 1.02 | 0.981 | 1.09 | 0.693 |
| NCI-H1623 | 0.562 | 0.383 | 0.577 | 0.459 | 0.48 | 0.399 | 0.39 | 0.431 | 0.437 | 0.432 | 0.444 | 0.442 | 0.421 | 0.336 | 0.376 | – | – | – | – | – |
| NCI-H322M | 0.792 | 0.623 | 0.777 | 0.963 | 0.628 | 0.608 | 0.495 | 0.59 | 0.449 | 0.527 | 0.543 | 0.4 | 0.643 | 0.475 | 0.444 | 0.587 | 0.556 | 0.561 | 0.496 | 0.445 |
| NCI-H2405 | 0.395 | 0.392 | 0.392 | 0.346 | 0.37 | 0.723 | 0.614 | 0.669 | – | 0.717 | 0.625 | 0.612 | 0.585 | 0.627 | 0.508 | 0.446 | 0.18 | 0.14 | 0.144 | 0.137 |
